Tests used:
Assay type in all cases: in vivo
Kochia (Kochia scoparia) [1] = assay: Test A preemergence; conditions: Bassia scoparia, pre-emergence, 240 h, 0 to 100 scale where 0 is no effect and 100 is complete control, read-out: Kochia plant response rating; for pest or weed control at 31 g/ha: 31 g ai/ha, Preemergence; for pest or weed control at 125 g/ha: 125 g ai/ha, preemergence, visual injury rating, approximately 10 d
Method in brief: (§1)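 Greenhouse, ~10 d after spray; visual injury vs untreated controls, 0 = no effect, 100 = complete control. Preemergence: directed soil spray over planted seeds. Postemergence: plants 2–10 cm, 1–2 leaf stage. Loam/sand blend. Compound in non-phytotoxic solvent with surfactant.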

[2] = tested on: barnyardgrass (Echinochloa crus-galli); assay: Test A preemergence; conditions: Echinochloa crus-galli, pre-emergence, 240 h, 0 to 100 scale where 0 is no effect and 100 is complete control, read-out: Barnyardgrass plant response rating; for pest or weed control at 31 g/ha: 31 g ai/ha, Preemergence; for pest or weed control at 125 g/ha: 125 g ai/ha, preemergence, visual injury rating, approximately 10 d
Method in brief: as §1

[3] = tested on: giant foxtail (Setaria faberii); assay: Test A preemergence; conditions: Setaria faberi, pre-emergence, 240 h, 0 to 100 scale where 0 is no effect and 100 is complete control, read-out: Foxtail, Giant plant response rating; for pest or weed control at 31 g/ha: 31 g ai/ha, Preemergence; for pest or weed control at 125 g/ha: 125 g ai/ha, preemergence, visual injury rating, approximately 10 d
Method in brief: as §1

[4] = tested on: pigweed (Amaranthus retroflexus); assay: Test A preemergence; conditions: Amaranthus retroflexus, pre-emergence, 240 h, 0 to 100 scale where 0 is no effect and 100 is complete control, read-out: Pigweed plant response rating; for pest or weed control at 31 g/ha: 31 g ai/ha, Preemergence; for pest or weed control at 125 g/ha: 125 g ai/ha, preemergence, visual injury rating, approximately 10 d
[5] = tested on: ragweed (common ragweed, Ambrosia elatior); assay: Test A preemergence; conditions: Ambrosia artemisiifolia, pre-emergence, 240 h, 0 to 100 scale where 0 is no effect and 100 is complete control, read-out: Ragweed plant response rating; for pest or weed control at 31 g/ha: 31 g ai/ha, Preemergence; for pest or weed control at 125 g/ha: 125 g ai/ha, preemergence, visual injury rating, approximately 10 d
Method in brief: as §1

[6] = tested on: ryegrass, Italian (Italian ryegrass, Lolium multiflorum); assay: Test A preemergence; conditions: Lolium multiflorum, pre-emergence, 240 h, 0 to 100 scale where 0 is no effect and 100 is complete control, read-out: Ryegrass, Italian plant response rating; for pest or weed control at 31 g/ha: 31 g ai/ha, Preemergence; for pest or weed control at 125 g/ha: 125 g ai/ha, preemergence, visual injury rating, approximately 10 d
Method in brief: as §1

[7] = tested on: Galium (catchweed bedstraw, Galium aparine); assay: Test A postemergence; conditions: Galium, post-emergence, 240 h, read-out: Galium plant response rating (0 to 100 scale); for pest or weed control at 125 g/ha: 125 g ai/ha, postemergence, visual injury vs untreated controls after approx. 10 d, 0 = no effect, 100 = complete control; for pest or weed control at 31 g/ha: Postemergence, 31 g ai/ha, 0 is no effect, 100 is complete control
Method in brief: as §1

Kochia (Kochia scoparia) [8] = assay: Test A postemergence; conditions: Bassia scoparia, post-emergence, 240 h, read-out: Kochia plant response rating (0 to 100 scale); for pest or weed control at 125 g/ha: 125 g ai/ha, postemergence, visual injury vs untreated controls after approx. 10 d, 0 = no effect, 100 = complete control; for pest or weed control at 31 g/ha: Postemergence, 31 g ai/ha, 0 is no effect, 100 is complete control
Method in brief: as §1

[9] = tested on: barnyardgrass (Echinochloa crus-galli); assay: Test A postemergence; conditions: Echinochloa crus-galli, post-emergence, 240 h, read-out: Barnyardgrass plant response rating (0 to 100 scale); for pest or weed control at 125 g/ha: 125 g ai/ha, postemergence, visual injury vs untreated controls after approx. 10 d, 0 = no effect, 100 = complete control; for pest or weed control at 31 g/ha: Postemergence, 31 g ai/ha, 0 is no effect, 100 is complete control
Method in brief: as §1

[10] = tested on: blackgrass (Alopecurus myosuroides); assay: Test A postemergence; conditions: Alopecurus myosuroides, post-emergence, 240 h, read-out: Blackgrass plant response rating (0 to 100 scale); for pest or weed control at 125 g/ha: 125 g ai/ha, postemergence, visual injury vs untreated controls after approx. 10 d, 0 = no effect, 100 = complete control; for pest or weed control at 31 g/ha: Postemergence, 31 g ai/ha, 0 is no effect, 100 is complete control
Method in brief: as §1

corn (Zea mays) = assay: Test A postemergence; conditions: Zea mays, post-emergence, 240 h, read-out: Corn plant response rating (0 to 100 scale); for plant injury at 125 g/ha: 125 g ai/ha, postemergence, visual injury vs untreated controls after approx. 10 d, 0 = no effect, 100 = complete control; for plant injury at 31 g/ha: Postemergence, 31 g ai/ha, 0 is no effect, 100 is complete control
Method in brief: as §1

[11] = tested on: giant foxtail (Setaria faberii); assay: Test A postemergence; conditions: Setaria faberi, post-emergence, 240 h, read-out: Foxtail, Giant plant response rating (0 to 100 scale); for pest or weed control at 125 g/ha: 125 g ai/ha, postemergence, visual injury vs untreated controls after approx. 10 d, 0 = no effect, 100 = complete control; for pest or weed control at 31 g/ha: Postemergence, 31 g ai/ha, 0 is no effect, 100 is complete control
Method in brief: as §1

[12] = tested on: pigweed (Amaranthus retroflexus); assay: Test A postemergence; conditions: Amaranthus retroflexus, post-emergence, 240 h, read-out: Pigweed plant response rating (0 to 100 scale); for pest or weed control at 125 g/ha: 125 g ai/ha, postemergence, visual injury vs untreated controls after approx. 10 d, 0 = no effect, 100 = complete control; for pest or weed control at 31 g/ha: Postemergence, 31 g ai/ha, 0 is no effect, 100 is complete control
Method in brief: as §1

[13] = tested on: ragweed (common ragweed, Ambrosia elatior); assay: Test A postemergence; conditions: Ambrosia artemisiifolia, post-emergence, 240 h, read-out: Ragweed plant response rating (0 to 100 scale); for pest or weed control at 125 g/ha: 125 g ai/ha, postemergence, visual injury vs untreated controls after approx. 10 d, 0 = no effect, 100 = complete control; for pest or weed control at 31 g/ha: Postemergence, 31 g ai/ha, 0 is no effect, 100 is complete control
Method in brief: as §1

[14] = tested on: ryegrass, Italian (Italian ryegrass, Lolium multiflorum); assay: Test A postemergence; conditions: Lolium multiflorum, post-emergence, 240 h, read-out: Ryegrass, Italian plant response rating (0 to 100 scale); for pest or weed control at 125 g/ha: 125 g ai/ha, postemergence, visual injury vs untreated controls after approx. 10 d, 0 = no effect, 100 = complete control; for pest or weed control at 31 g/ha: Postemergence, 31 g ai/ha, 0 is no effect, 100 is complete control
Method in brief: as §1

[15] = tested on: wheat (Triticum aestivum); assay: Test A postemergence; conditions: Triticum aestivum, post-emergence, 240 h, read-out: Wheat plant response rating (0 to 100 scale); for plant injury at 125 g/ha: 125 g ai/ha, postemergence, visual injury vs untreated controls after approx. 10 d, 0 = no effect, 100 = complete control; for plant injury at 31 g/ha: Postemergence, 31 g ai/ha, 0 is no effect, 100 is complete control
Method in brief: as §1

[16] = tested on: barnyardgrass (Echinochloa crus-galli); assay: Test B flooded paddy test; conditions: Echinochloa crus-galli, 250 g ai/ha, Flood; 0 to 100 scale where 0 is no effect and 100 is complete control; read-out: Barnyardgrass plant response rating
Method in brief: (§2)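 Flooding to 3 cm over soil accompanied treatment, which consisted of adding compound to the standing water around 2-leaf plants; depth was then maintained. Visual assessment versus controls followed at 13 to 15 d (scale 0–100, 0 meaning no effect).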

[17] = tested on: ducksalad (Heteranthera limosa); assay: Test B flooded paddy test; conditions: Heteranthera limosa, 250 g ai/ha, Flood; 0 to 100 scale where 0 is no effect and 100 is complete control; read-out: Ducksalad plant response rating
Method in brief: as §2

rice (Oryra sativa) = assay: Test B flooded paddy test; conditions: Oryza sativa, 250 g ai/ha, Flood; 0 to 100 scale where 0 is no effect and 100 is complete control; read-out: Rice plant response rating
Method in brief: as §2

[18] = tested on: sedge, umbrella (small-flower umbrella sedge, Cyperus difformis); assay: Test B flooded paddy test; conditions: Cyperus difformis, 250 g ai/ha, Flood; 0 to 100 scale where 0 is no effect and 100 is complete control; read-out: Sedge, Umbrella plant response rating
Method in brief: as §2

Cc1ccc([C@H]2CN(C)C(=O)[C@@H]2C(=O)Nc2cccc(F)c2C#N)cc1 [Compound 1189]
0%: pest or weed control at 31 g/ha [4] | pest or weed control at 31 g/ha [5] | pest or weed control at 31 g/ha (Kochia (Kochia scoparia) [8]) | plant injury at 31 g/ha (corn (Zea mays)) | pest or weed control at 125 g/ha [12] | pest or weed control at 31 g/ha [12] | pest or weed control at 31 g/ha [13] | pest or weed control at 31 g/ha [14] | plant injury at 31 g/ha [15] | pest or weed control at 250 g/ha [18]
20%: pest or weed control at 31 g/ha [6] | pest or weed control at 125 g/ha (Kochia (Kochia scoparia) [8]) | pest or weed control at 31 g/ha [10] | plant injury at 125 g/ha (corn (Zea mays)) | pest or weed control at 125 g/ha [14] | plant injury at 125 g/ha [15]
90%: pest or weed control at 31 g/ha [2] | pest or weed control at 31 g/ha [3]
50%: pest or weed control at 125 g/ha [5] | pest or weed control at 125 g/ha [7]
75%: pest or weed control at 250 g/ha [16]
40%: pest or weed control at 31 g/ha (Kochia (Kochia scoparia) [1]) | pest or weed control at 125 g/ha [4] | pest or weed control at 125 g/ha [10] | pest or weed control at 125 g/ha [13]
15%: pest or weed control at 250 g/ha (rice (Oryra sativa))
80%: pest or weed control at 125 g/ha [11]
100%: pest or weed control at 125 g/ha [2] | pest or weed control at 125 g/ha [3] | pest or weed control at 125 g/ha [9] | pest or weed control at 250 g/ha [17]
60%: pest or weed control at 125 g/ha [6]
70%: pest or weed control at 125 g/ha (Kochia (Kochia scoparia) [1]) | pest or weed control at 31 g/ha [9] | pest or weed control at 31 g/ha [11]
30%: pest or weed control at 31 g/ha [7]

N#Cc1ccc([C@H]2CNC(=O)[C@@H]2C(=O)Nc2ccccc2F)cc1F [Compound 1191]
90%: pest or weed control at 250 g/ha [17]
0%: pest or weed control at 31 g/ha (Kochia (Kochia scoparia) [1]) | pest or weed control at 125 g/ha (Kochia (Kochia scoparia) [1]) | pest or weed control at 31 g/ha [2] | pest or weed control at 125 g/ha [2] | pest or weed control at 31 g/ha [3] | pest or weed control at 125 g/ha [3] | pest or weed control at 31 g/ha [4] | pest or weed control at 125 g/ha [4] | pest or weed control at 31 g/ha [5] | pest or weed control at 125 g/ha [5] | pest or weed control at 31 g/ha [6] | pest or weed control at 125 g/ha [6] | pest or weed control at 125 g/ha [7] | pest or weed control at 31 g/ha [7] | pest or weed control at 125 g/ha (Kochia (Kochia scoparia) [8]) | pest or weed control at 31 g/ha (Kochia (Kochia scoparia) [8]) | pest or weed control at 125 g/ha [9] | pest or weed control at 31 g/ha [9] | pest or weed control at 125 g/ha [10] | pest or weed control at 31 g/ha [10] | plant injury at 125 g/ha (corn (Zea mays)) | plant injury at 31 g/ha (corn (Zea mays)) | pest or weed control at 125 g/ha [11] | pest or weed control at 31 g/ha [11] | pest or weed control at 125 g/ha [12] | pest or weed control at 31 g/ha [12] | pest or weed control at 125 g/ha [13] | pest or weed control at 31 g/ha [13] | pest or weed control at 125 g/ha [14] | pest or weed control at 31 g/ha [14] | plant injury at 125 g/ha [15] | plant injury at 31 g/ha [15] | pest or weed control at 250 g/ha [16] | pest or weed control at 250 g/ha [18]
10%: pest or weed control at 250 g/ha (rice (Oryra sativa))

From US12077503B2, “Substituted cyclic amides and their use as herbicides” (FMC CORPORATION, priority 2015, dated 2024)
